The record followed here is patent US20250236616A1, “IMMUNOMODULATING AZALIDES” (Zoetis Services LLC, priority 2021, published 2025).

The subject of experiment [1] is TNF-α. Put plainly: Whole bovine blood assay, LPS-induced TNF-α. Type of experiment: cell-based. Conditions: Bos taurus, fresh whole bovine blood, LPS stimulant. The procedure, abridged:
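Fresh heparinized bovine whole blood was preincubated with compound 4 h at 37 °C, then stimulated with LPS (final 1 μg/mL) for 18 h at 37 °C. Plasma TNF-α was quantified by MSD U-Plex chemiluminescent immunoassay, normalized to total protein (BCA), and IC50 taken for LPS-induced TNF-α inhibition.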

The test system of experiment [2] is IL-1β. Kind of experiment: Whole bovine blood assay, LPS-induced IL-1β (inhibition / overstimulation). Type of experiment: cell-based. The note with it: Bos taurus, 18 h, drug concentration giving overstimulation (OS) of LPS-induced IL-1β. The procedure, abridged:
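IL-1β was quantified by MSD U-Plex chemiluminescence in plasma and normalized to BCA total protein. Bovine blood was pretreated 4 h at 37 °C with compound dilutions before 18 h LPS challenge (1 μg/mL final). Rising IL-1β at high concentrations was recorded as overstimulation.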

Experiment [3] has as its system P. multocida 46572. Kind of experiment: In vivo mouse lung infection challenge model (murine efficacy), survival. Details: species or system CD-1 female mice. Conditions: P. multocida 46572 intranasal challenge; 20 mg/kg subcutaneous; harmonized relative to vehicle (−) and M9 (+) controls. As for the experimental part:
The challenge organism was P. multocida 46572. Target challenge concentration was 5×10^2 CFU/mouse. Isolated colonies from overnight growth (37° C. with 5% CO2) on trypticase soy agar (TSA II) blood plates were transferred to room temperature Brain Heart Infusion Broth (BHIB). The broth culture was incubated 3.5-4 hours to approximately mid-log phase of growth, as measured by forward light scatter at 600 nm (OD600, 0.200). The culture was centrifuged to collect the bacterial pellet. The pellet was re-suspended in BHIB and adjusted to provide an approximate concentration of 2.7 log 10 colony forming units (CFU) in 0.04 mL at the highest concentration. The challenge inoculum concentration was confirmed by serial dilutions of the inoculum for CFU enumeration. On Day −5, CD −1 female mice were received. Mice were given standard rodent diet and water ad libitum. On Day 0, bacterial inoculum (0.04 mL) was administered to each mouse (n=36) intranasally. Compounds of the invention were dosed at 20 mg/kg (0.1 mL) in a buffered (˜pH 5.4) propylene glycol, monothioglycerol and water solution by subcutaneous injection. Animals were observed from Days 1-10. The study was terminated on Day 10. In addition, some treatment groups were sampled at 6, 24, and 48 hours post bacterial challenge for RNA sequence analysis of lung tissue.
The murine efficacy model (P.multocida challenge) was optimized, and the treatment group size was powered to be able to observe statistically significant improvement of survival to expected ranges for immunomodulatory compounds. The experimental design was a randomized complete block design. Mice were individually identified and treatment groups comingled within a cage, with every treatment group equally represented across cages. Mortality was the primary variable. Mortality data was analyzed using a generalized mixed model with fixed effect of treatment and random effect of block. Survival time was also analyzed using the SAS PHREG (survival analysis) procedure to examine whether there were significant differences between treatment groups and the control group. Numerous compounds of the invention and M9 (positive control) were tested in this model at a dose of 20 mg/kg (Table 3). Typical percent survival for no treatment control is in the range of 0-20% based on study to study variation in challenge inoculum and rate of infection. […] Mouse survival for M9 was about 90-100%, further supporting its residual antibacterial properties against the bacterial strain.

Experiment [4] deals with IL-6. Put plainly: Whole bovine blood assay, LPS-induced IL-6. The class given is cell-based. The note with it: Bos taurus, fresh whole bovine blood, LPS stimulant; top drug concentration 250 μM.

One may read the IC50 as the concentration needed to halve the response being measured. The minimal effective concentration is the lowest level tested that produced the effect sought. A lower minimal effective concentration goes with greater potency.

As to `CCCNC[C@]1(O)[C@H](C)O[C@@H](O[C@H]2[C@H](C)[C@@H](O[C@@H]3O[C@H](C)C[C@H](N(C)S(=O)(=O)c4ccc(Cl)cc4)[C@H]3O)[C@](C)(O)C[C@@H](C)CN[C@H](C)[C@@H](O)[C@](C)(O)[C@@H](CC)OC(=O)[C@@H]2C)C[C@@]1(C)OC` [Example B-60, 4-chloro-N-((2S,3R,4S,6R)-2-(((2R,3S,4R,5R,8R,10R,11R, 12S,13S, 14R)-2-ethyl-3,4,10-trihydroxy-13-(((2R,4R,5S,6S)-5-hydroxy-4-methoxy-4,6-dimethyl-5-((propylamino)methyl)tetrahydro-2H-pyran-2-yl)oxy)-3,5,8, 10, 12, 14-hexamethyl-15-oxo-1-oxa-6-azacyclopentadecan-11-yl)oxy)-3-hydroxy-6-methyltetrahydro-2H-pyran-4-yl)-N-methylbenzenesulfonamide], the IC50 in experiment [1] (dose of 500 μM (footnote ^)) came out at 5 µM. The minimal effective concentration in experiment [2] (dose of 500 μM (footnote ^)) was 13 µM. Moreover, the “% Survival” value in experiment [3] came to 37%.

`CC[C@H]1OC(=O)[C@H](C)[C@@H](O)[C@H](C)[C@@H](O[C@@H]2O[C@H](C)C[C@H](N(C)S(=O)(=O)c3ccccc3)[C@H]2Oc2ccccc2)[C@](C)(O)C[C@@H](C)CN(C)[C@H](C)[C@@H](O)[C@]1(C)O` [Example A-3, N-((2S,3R,4S,6R)-2-(((2R,3S,4R,5R,8R,10R,11R,12S,13S,14R)-2-ethyl-3,4, 10,13-tetrahydroxy-3,5,6,8,10, 12,14-heptamethyl-15-oxo-1-oxa-6-azacyclopentadecan-11-yl)oxy)-6-methyl-3-phenoxytetrahydro-2H-pyran-4-yl)-N-methylbenzenesulfonamide]: the IC50 in experiment [1] (top drug concentration 250 μM) came to 23 µM; in experiment [4] it was 43 µM. In experiment [2] (top concentration 250 μM), this compound came in with a minimal effective concentration of 14 µM. Further, the “% Survival” value in experiment [3] turned out to be 24%.

Consider `CCCNC[C@]1(O)[C@H](C)O[C@@H](O[C@H]2[C@H](C)[C@@H](O[C@@H]3O[C@H](C)C[C@H](N(C)S(=O)(=O)Nc4ccccc4)[C@H]3O)[C@](C)(O)C[C@@H](C)CN[C@H](C)[C@@H](O)[C@](C)(O)[C@@H](CC)OC(=O)[C@@H]2C)C[C@@]1(C)OC` [Example B-48, (2R,3S,4R,5R,8R,10R,11R,12S,13S, 14R)-2-ethyl-3,4,10-trihydroxy-13-[(2R,4R,5S,6S)-5-hydroxy-4-methoxy-4,6-dimethyl-5-(propylaminomethyl)oxan-2-yl]oxy-11-[(2S,3R,4S,6R)-3-hydroxy-6-methyl-4-[methyl(phenylsulfamoyl)amino]oxan-2-yl]oxy-3,5,8,10,12,14-hexamethyl-15-oxo-1-oxa-6-azacyclopentadecane], for which inhibition in experiment [1] (dose of 500 μM (footnote ^)) was half-maximal at 25 µM (IC50). Besides, the minimal effective concentration in experiment [2] (dose of 500 μM (footnote ^)) came out at 32 µM. For the same compound, in experiment [3], the “% Survival” value is 33%.

`CC[C@H]1OC(=O)[C@H](C)[C@@H](O)[C@H](C)[C@@H](O[C@@H]2O[C@H](C)C[C@H](N(C)S(=O)(=O)c3ccccc3)[C@H]2Oc2ccc(OC)c(OC)c2)[C@](C)(O)C[C@@H](C)CN[C@H](C)[C@@H](O)[C@]1(C)O` [Example A-8, N-((2S,3R,4S,6R)-3-(3,4-dimethoxyphenoxy)-2-(((2R,3S,4R,5R,8R,10R,11R,12S,13S,14R)-2-ethyl-3,4, 10, 13-tetrahydroxy-3,5,8,10,12,14-hexamethyl-15-oxo-1-oxa-6-azacyclopentadecan-11-yl)oxy)-6-methyltetrahydro-2H-pyran-4-yl)-N-methylbenzenesulfonamide] showed an IC50 in experiment [1] (top drug concentration 250 μM) of 40 µM. For the same compound, the minimal effective concentration in experiment [2] (top concentration 250 μM) is 100 µM. Besides, the “% Survival” value in experiment [3] came to 20%.

With `CCCNC[C@]1(O)[C@H](C)O[C@@H](O[C@H]2[C@H](C)[C@@H](O[C@@H]3O[C@H](C)C[C@H](N(Cc4ccc(OC)cc4)S(=O)(=O)c4ccccc4)[C@H]3O)[C@](C)(O)C[C@@H](C)CN[C@H](C)[C@@H](O)[C@](C)(O)[C@@H](CC)OC(=O)[C@@H]2C)C[C@@]1(C)OC` [Example B-148, N-((2S,3R,4S,6R)-2-(((2R,3S,4R,5R,8R,10R,11R,12S,13S,14R)-2-ethyl-3,4,10-trihydroxy-13-(((2R,4R,5S,6S)-5-hydroxy-4-methoxy-4,6-dimethyl-5-((propylamino)methyl)tetrahydro-2H-pyran-2-yl)oxy)-3,5,8,10, 12, 14-hexamethyl-15-oxo-1-oxa-6-azacyclopentadecan-11-yl)oxy)-3-hydroxy-6-methyltetrahydro-2H-pyran-4-yl)-N-(4-methoxybenzyl)benzenesulfonamide], the IC50 was 2 µM in experiment [1] (top drug concentration 250 μM) and 4 µM in experiment [4]. Further, the minimal effective concentration in experiment [2] (top concentration 250 μM) amounted to 2 µM. Further, the “% Survival” value in experiment [3] is 68%.

As for `CC[C@H]1OC(=O)[C@H](C)[C@@H](O[C@H]2C[C@@](C)(OC)[C@](O)(CNCCCN3CCCCC3)[C@H](C)O2)[C@H](C)[C@@H](O[C@@H]2O[C@H](C)C[C@H](N(C)S(=O)(=O)c3ccc(Cl)cc3)[C@H]2O)[C@](C)(O)C[C@@H](C)CN[C@H](C)[C@@H](O)[C@]1(C)O` [Example B-58, 4-chloro-N-((2S,3R,4S,6R)-2-(((2R,3S,4R,5R,8R,10R,11R,12S,13S, 14R)-2-ethyl-3,4,10-trihydroxy-13-(((2R,4R,5S,6S)-5-hydroxy-4-methoxy-4,6-dimethyl-5-(((3-(piperidin-1-yl)propyl)amino)methyl)tetrahydro-2H-pyran-2-yl)oxy)-3,5,8,10,12,14-hexamethyl-15-oxo-1-oxa-6-azacyclopentadecan-11-yl)oxy)-3-hydroxy-6-methyltetrahydro-2H-pyran-4-yl)-N-methylbenzenesulfonamide], the values for the IC50 in experiment [1] (top drug concentration 250 μM) and in experiment [4] were 29 µM and 75 µM, respectively. The minimal effective concentration in experiment [2] (top concentration 250 μM) stood at 40 µM. In addition, the “% Survival” value in experiment [3] is 32%.

Regarding `CCCNC[C@]1(O)[C@H](C)O[C@@H](O[C@H]2[C@H](C)[C@@H](O[C@@H]3O[C@H](C)C[C@H](N(C)S(=O)(=O)N(C)C4CCCCC4)[C@H]3O)[C@](C)(O)C[C@@H](C)CN[C@H](C)[C@@H](O)[C@](C)(O)[C@@H](CC)OC(=O)[C@@H]2C)C[C@@]1(C)OC` [Example B-49, (2R,3S,4R,5R,8R,10R,11R,12S,13S,14R)-11-[(2S,3R,4S,6R)-4-[[cyclohexyl(methyl)sulfamoyl]-methylamino]-3-hydroxy-6-methyloxan-2-yl]oxy-2-ethyl-3,4,10-trihydroxy-13-[(2R,4R,5S,6S)-5-hydroxy-4-methoxy-4,6-dimethyl-5-(propylaminomethyl)oxan-2-yl]oxy-3,5,8,10,12,14-hexamethyl-1-oxa-6 azacyclopentadecan-15-one], the IC50 amounted to 37 µM in experiment [1] (top drug concentration 250 μM) and 16 µM in experiment [4]. In addition, the minimal effective concentration in experiment [2] (top concentration 250 μM) stood at 6 µM. Moreover, in experiment [3], the “% Survival” value stood at 53%.

In the case of `CCCNC[C@]1(O)[C@H](C)OC(O[C@H]2[C@H](C)[C@@H](O[C@@H]3O[C@H](C)C[C@H](N(C)S(=O)(=O)c4nccn4C)[C@H]3Oc3ccc(F)cc3)[C@](C)(O)C[C@@H](C)CN[C@H](C)[C@@H](O)[C@](C)(O)[C@@H](CC)OC(=O)[C@@H]2C)C[C@@]1(C)OC` (stereo partly drawn) [Example B-107, N-[(2S,3R,4S,6R)-2-[[(2R,3S,4R,5R,8R,10R,11R,12S,13S, 14R)-2-ethyl-3,4,10-trihydroxy-13-[(4R,5S,6S)-5-hydroxy-4-methoxy-4,6-dimethyl-5-(propylaminomethyl)oxan-2-yl]oxy-3,5,8, 10, 12, 14-hexamethyl-15-oxo-1-oxa-6-azacyclopentadec-11-yl]oxy]-3-(4-fluorophenoxy)-6-methyloxan-4-yl]-N, 1-dimethylimidazole-2-sulfonamide], the values for the IC50 in experiment [1] (top drug concentration 250 μM) and in experiment [4] were 22 µM and 9 µM, respectively. For the same compound, in experiment [2] (top concentration 250 μM), the minimal effective concentration was determined as 2 µM. For the same compound, the “% Survival” value in experiment [3] is listed as 82%.
